The supplement of paper PMC10307832

compound: Cc1nc(NC(=O)N2CCC[C@H]2C(N)=O)sc1-c1ccnc(C(C)(C)C(F)(F)F)c1 [Alpelisib] + CC(=O)c1c(C)c2cnc(Nc3ccc(N4CCNCC4)cn3)nc2n(C2CCCC2)c1=O [Palbociclib] (partner 0.5 µM); test: relative viability (nuclei count vs DMSO), 5 days (fraction); higher = more cells survive; details: first compound 4 µM
Method in brief: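 Medians of duplicate plates are given as relative viability. That measure is the nuclei count in treated wells divided by the count in vehicle wells. Counts were taken on 4× images of lung cancer cell lines in 1536-well plates, 5 days after pin-tool dosing the day after seeding with one drug alone or a fixed anchor-drug dose plus five library-drug doses (not always all listed) in √10 steps.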

Cell Line	relative viability
HCC-78	0.43

compound: COc1cccc2cc(-c3nc([C@H]4CC[C@H](C(=O)O)CC4)n4ncnc(N)c34)[nH]c12 [OSI-027]; test: relative viability (nuclei count vs DMSO), 5 days (fraction); higher = more cells survive; details: 0.01 µM
Method in brief: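 A plate was accepted only when its control CV was below 25% and the cells had doubled at least once. Viability is defined from nuclear counts as treated wells divided by vehicle wells, with the median taken across plates. That median covers lung cancer cell lines grown in 1536-well plates, dosed by pinning at five √10-spaced library-drug concentrations, and counted in MetaXpress from 4× Hoechst images after 5 days.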

Cell Line	relative viability
NCI-H23	0.906
HCC-827	1.08
NCI-H2347	0.979
LXF-289	1.02
NCI-H1666	0.99
RERF-LC-KJ	0.942
NCI-H650	0.862
NCI-H322M	0.922
201T	0.98
SW 900	0.618
SK-MES-1	1.04
NCI-H441	1.19
HCC-78	0.938

same assay, conditions: 0.03162 µM

Cell Line	relative viability
NCI-H23	0.96
HCC-827	1.02
NCI-H2347	1.07
LXF-289	0.971
NCI-H1666	0.986
RERF-LC-KJ	1.01
NCI-H650	0.999
NCI-H322M	0.887
201T	0.999
SW 900	0.925
SK-MES-1	0.967
NCI-H441	1.05
HCC-78	0.866

same assay, conditions: 0.1 µM

Cell Line	relative viability
NCI-H23	0.808
HCC-827	1.04
NCI-H2347	0.904
LXF-289	1.04
NCI-H1666	0.98
RERF-LC-KJ	0.933
NCI-H650	0.732
NCI-H322M	0.843
201T	0.972
SW 900	0.744
SK-MES-1	0.922
NCI-H441	0.984
HCC-78	0.832

same assay, conditions: 0.3162 µM

Cell Line	relative viability
NCI-H23	0.784
HCC-827	1.04
NCI-H2347	0.772
LXF-289	0.981
NCI-H1666	0.88
RERF-LC-KJ	0.735
NCI-H650	0.701
NCI-H322M	0.72
201T	0.968
SW 900	0.812
SK-MES-1	0.78
NCI-H441	0.963
HCC-78	0.727

same assay, conditions: 0.5 µM; anchor plate

Cell Line	relative viability
NCI-H23	0.612
HCC-827	0.792
NCI-H2347	0.376
LXF-289	0.817
NCI-H1666	0.863
RERF-LC-KJ	0.597
NCI-H650	0.532
NCI-H322M	0.578
201T	0.757
SW 900	0.627
SK-MES-1	0.605
